Measured values: patent US20210113522A1, “COUMARIN DERIVATIVE AS ANTI-ASTHMATIC AGENT, PHARMACEUTICAL COMPOSITION THEREOF, ITS PREPARATION AND USE” (I-NOVA MEDICINSKA ISTRAZIVANJA D.O.O., priority 2017, published 2021)

Tested on: croton oil-induced ear edema
Test: Croton oil-induced ear edema in mice
Assay type: in vivo, Balb/c mice
Conditions: dexamethasone 1 mg/kg, 1 2 mg/kg
Excerpt: The presents study aims to detect the inflammatory/anti-inflammatory potential effects of compound 1 in a model of acute skin inflammation induced by local application of phlogistic agent croton oil in Balb/c mice. The technique for croton oil-induced ear edema in mice, originally described by Tubaro et al., was followed, with modifications; see literature references 16 and 17: • 16) A. Tubaro, P. Dri, G. Delbello, C. Zilli, R. Della Loggia: The croton oil ear test revisited, Agents Actions 17 (1986) 347-349. • 17) G. Coruzzi, C. Pozzoli, M. Adami, D. Grandi, N. Guido, R. Smits, I. de Esch and R. Leurs: Strain-dependent effects of the histamine H4 receptor antagonist JNJ7777120 in a murine model of acute skin inflammation, Experimental Dermatology 21 (2011) 32-37.
Mice (total 40) were separated into 4 groups (n=10). Each group was treated under different regimen:
Cutaneous inflammation was induced in conscious mice by topical application of croton oil (5% in acetone).
Six hours after croton oil application, mice were euthanized by light ether anaesthesia, followed by cervical dislocation; both left (acetone) and right (croton oil in acetone) ears were removed, by cutting horizontally across the indentation at the base of the ear. For each mouse, the extent of the oedema was expressed as the difference in weight (Δ [mg]) between right (inflamed) and left (uninflamed) ear. The percentage increase in the oedema of the treated ear was calculated by the following formula: […]
The presents study aims to detect the inflammatory/anti-inflammatory potential effects of compound 1 in a model of acute skin inflammation induced by local application of phlogistic agent croton oil in Balb/c mice. The technique for croton oil-induced ear edema in mice, originally described by Tubaro et al., was followed, with modifications; see literature references 16 and 17.
In preliminary experiments, the effect of subcutaneous (s.c.) administration of saline, 100% DMSO or 20% 2-hydroxypropyl-β-cyclodextrin was investigated to check the vehicle effects on ear inflammation.
The statistical significance between the groups was assessed by one-way analysis of variance (ANOVA) followed by a post hoc Tukey test. The accepted level of significance for the test was P<0.05. All tests were carried out using GraphPad Software (San Diego, Calif., USA).

O=c1oc2cc(O)cc(O)c2c(O)c1-c1coc2c1c(=O)oc1cc(O)cc(O)c12 [Compound 1, 7,9-dihydroxy-3-(4,5,7-trihydroxy-2-oxo-2H-chromene-3-yl)-4H-furo[3,2-c]chromen-4-one]
Ear edema Δm (right minus left ear) (6 h after croton oil): 0.0321 g | Percentage of increasing the ear edema (6 h after croton oil): 92.98% | Maximal inhibition of croton oil-induced ear oedema (Balb/c mice, 6 h): ~40% | Left ear m (left ear: 80% 2HPβCD + 20% DMSO (uninflamed), 6 h): 0.0344 g | Right ear m (right ear: substance + croton oil after 30 min, 6 h): 0.0665 g
